Assay results: patent publication US20230405201A1, “TECHNIQUES FOR INCREASING RED BLOOD CELL COUNT” (FRESENIUS MEDICAL CARE HOLDINGS, INC., priority 2020, published 2023)
Like-named read-outs stand apart in the source and are kept apart here.

Assays:
Piezo1 = settings: cited from earlier work
[1] = Serum concentration of CMPF in normal and uremic subjects; assay type: in vivo, human; settings: uremic versus average normal concentration
Experimental: FIG. 4 illustrates carboxy-4-methyl-5-propyl-2-furanpropionate (CMPF) 401 in accordance with the present disclosure. CMPF is a 240 Da metabolite of furan fatty acids and a protein-bound uremic retention solute normally cleared by the healthy kidney. In CKD patients, CMPF levels are increased 5- to 15-fold compared to healthy subjects.
An average normal concentration for CMPF may be a mean (±SD) of about 4.6±1.8 with a range between about 3.6 and 7.7 mg/L. In uremic patients the mean concentration (CU) is about 25.9±10.2 mg/L (with a range of about 3.7 to 94 mg/L).
Accordingly, the relative increase (CU/CN) may be over 5-times higher than the average normal concentration. […] As much as 99.5% of all CMPF may be found bound to HSA in serum. Consequently, this high association to HSA may prevent a sufficient secretion due to lower renal clearance rates in uremic patients, for example, at a rate of about 0.05 mL/min, compared to 0.40 mL/min for healthy patients. Due to its strong binding affinity to HSA, the removal of CMPF through conventional hemodialysis is generally difficult and even practically ineffective.

[2] = target: human serum albumin (HSA) (Homo sapiens, UniProt P02768); settings: cited from earlier work
Sequence of human serum albumin (HSA) (P02768 25-609): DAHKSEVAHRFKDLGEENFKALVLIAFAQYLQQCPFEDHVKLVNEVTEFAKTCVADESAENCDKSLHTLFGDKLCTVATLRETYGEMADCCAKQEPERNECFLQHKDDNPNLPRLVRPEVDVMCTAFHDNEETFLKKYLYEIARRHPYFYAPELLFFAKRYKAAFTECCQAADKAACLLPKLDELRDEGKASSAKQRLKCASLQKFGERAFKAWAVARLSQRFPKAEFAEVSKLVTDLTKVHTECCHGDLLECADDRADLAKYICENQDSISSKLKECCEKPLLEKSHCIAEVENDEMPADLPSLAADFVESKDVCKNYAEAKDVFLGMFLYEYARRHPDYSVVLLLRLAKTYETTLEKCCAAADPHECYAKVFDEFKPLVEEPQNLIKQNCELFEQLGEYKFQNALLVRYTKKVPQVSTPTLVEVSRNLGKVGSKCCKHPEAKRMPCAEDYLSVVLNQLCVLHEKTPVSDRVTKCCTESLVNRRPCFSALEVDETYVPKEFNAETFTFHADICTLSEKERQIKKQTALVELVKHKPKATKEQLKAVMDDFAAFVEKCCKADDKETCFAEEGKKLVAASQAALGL

[3] = cited from earlier work
[4] = cited from earlier work; remark: listed apart in the source
HSA = target: T1, HSA (Homo sapiens, UniProt P02768); settings: cited from earlier work
T1 construct: from tissue; host or cells: serum
T1 sequence (P02768 25-609): as above

HSA's binding site 1 = HSA's binding site 1 (Homo sapiens, UniProt P02768); settings: cited from earlier work
Sequence of HSA's binding site 1 (P02768 25-609): as above

With `Cc1oc(-c2ccccc2)cc1C(=O)O` [Jedi1] as the compound, how does the Piezo1 stimulation (Piezo1) read?
Its Piezo1 stimulation is “stimulate Piezo1”.

Which “relative increase (CU/CN)” value [1] does the source give for `CCCc1oc(CCC(=O)O)c(C(=O)O)c1C` [CMPF, 3-carboxy-4-methyl-5-propyl-2-furanpropionate] here?
The value was “over 5 times”.

And the “constant of association with HSA molecules” value [2]?
The value was “about 10^8 M^−1”.

And the renal clearance rate ([3]; healthy patients)?
Its renal clearance rate is 0.40 mL/min.

What about the renal clearance rate ([3]; uremic patients) of the same compound?
The renal clearance rate was “about 0.05 mL/min”.

What about the “average normal concentration, mean (±SD)” value ([4]; normal) of the same compound?
The value was “about 4.6±1.8 mg/L”.

What about the “mean concentration (CU)” value ([4]; uremic patients) of the same compound?
The value was “about 25.9±10.2 mg/L”.

What about the “CMPF found bound to HSA in serum” value (HSA) of the same compound?
The value was ≤ 99.5%.

For `Clc1cccc(Cl)c1CSc1nnc(-c2cnccn2)s1` [Yoda1], which Piezo1 stimulation (Piezo1) is on record?
The Piezo1 stimulation was “stimulate Piezo1”.

With `Cc1oc(-c2cccs2)cc1C(=O)O` [Jedi2] as the compound, how does the Piezo1 stimulation (Piezo1) read?
The Piezo1 stimulation was “stimulate Piezo1”.

Which “binding affinity towards HSA's binding site 1 relative to CMPF” value (HSA's binding site 1) does the source give for `CC(C)C1=CC(=O)C2(C)C(C1=O)C1(C)C(=O)C=C(C(C)C)C(=O)C21` (centres unmarked) [DTQ, dithymoquinone] here?
The value was “higher binding affinity towards HSA's binding site 1 than CMPF”.
